Results: patent US20060270628A1, “Antiinfective 1,2,3-triazole derivatives, process for their preparation and pharmaceutical compositions containing them” (priority 2003, published 2006)
≈ marks a conversion by molar mass, not a printed value.

How the values were obtained:
Salmonella TA97 = assay: MIC by broth microdilution, Salmonella TA97; format: cell-based; conditions: read-out: Antimicrobial Screening (MIC) Salmonella TA97
Protocol: (§1) Minimum Inhibiton Concentrations (MICs) were determined by broth microdilution technique as per the guidelines prescribed in the fifth edition of Approved Standards, NCCLS document M7-A5 Vol 20-No 2, 2000 Villinova, Pa.
(§2) Initial stock solution of the test compound was prepared in DMSO. Subsequent two fold dilutions were carried out in sterile Mueller Hinton Broth (Difco) (MHB).
(§3) Frozen cultures stocks were inoculated into 50 ml sterile MHB in 250 ml Erlyn Meyer flasks. • Composition of MHB is as follows: • Beef Extract Powder—2.0 grams/litre • Acid Digest of Casein—17.5 grams/litre • Soluble Starch—1.5 grams/litre • Final pH 7.3±0.1
(§4) Flasks were incubated for 4 to 5 hours at 35° C. on a rotary shaker at 150 rpm. Inoculum was prepared by diluting the culture in sterile MHB to obtain a turbidity of 0.5 McFarland standard. This corresponds to 1-2×10^8 CFU/ml. The stock was further diluted in sterile broth to obtain 1-2×10^6 CFU/ml. 50 μl of the above diluted inoculum was added from 1-10 wells. The plates were incubated overnight at 37° C.

Mycobacterium MTCC006 = assay: MIC by broth microdilution, Mycobacterium MTCC006; format: cell-based; conditions: read-out: Antimicrobial Screening (MIC) Mycobacterium MTCC006
Protocol: as §1, §2, §3, §4

[1] = system: Enterococcus faecalis NCTC 12201 (DRCC 153, R); assay: MIC by broth microdilution, Enterococcus sp 153 R; format: cell-based; conditions: NCTC12201, Enterococcus DRCC 153 (E. faecalis NCTC 12201), read-out: Antimicrobial Screening (MIC) Enterococcus sp 153 R
Protocol: as §1, §2, §3, §4

[2] = system: Enterococcus faecalis ATCC 29212 (DRCC 034, S); assay: MIC by broth microdilution, Enterococcus sp 034 S; format: cell-based; conditions: ATCC29212, Enterococcus DRCC 034 (E. faecalis ATCC 29212), read-out: Antimicrobial Screening (MIC) Enterococcus sp 034 S
Protocol: as §1, §2, §3, §4

[3] = system: Staphylococcus aureus ATCC 49951 (DRCC 213, Smith S); assay: MIC by broth microdilution, Staphylococcus aureus 213 Smith S; format: cell-based; conditions: ATCC49951, Staphylococcus aureus DRCC 213 (ATCC 49951), read-out: Antimicrobial Screening (MIC) Staphylococcus aureus 213 Smith S
Protocol: as §1, §2, §3, §4

[4] = system: Staphylococcus aureus ATCC 29213 (DRCC 035, S); assay: MIC by broth microdilution, Staphylococcus aureus 035 S; format: cell-based; conditions: ATCC29213, Staphylococcus aureus DRCC 035 (ATCC 29213), read-out: Antimicrobial Screening (MIC) Staphylococcus aureus 035 S
Protocol: as §1, §2, §3, §4

[5] = system: Enterococcus faecium NCTC 12202 (DRCC 154, R); assay: MIC by broth microdilution, Enterococcus sp 154 R; format: cell-based; conditions: NCTC12202, Enterococcus DRCC 154 (E. faecium NCTC 12202), read-out: Antimicrobial Screening (MIC) Enterococcus sp 154 R
Protocol: as §1, §2, §3, §4

[6] = system: Staphylococcus aureus ATCC 33591 (DRCC 019, MRSA); assay: MIC by broth microdilution, Staphylococcus aureus 019 MRSA; format: cell-based; conditions: Staphylococcus aureus DRCC 019 (ATCC 33591), read-out: Antimicrobial Screening (MIC) Staphylococcus aureus 019 MRSA
Protocol: as §1, §2, §3, §4

Compound	melting point [°C]	MIC (Salmonella TA97) [µg/mL]	MIC (Mycobacterium MTCC006) [µg/mL]	MIC [1] [µg/mL]	MIC [2] [µg/mL]	MIC [3] [µg/mL]	MIC [4] [µg/mL]	MIC [5] [µg/mL]	MIC [6] [µg/mL]
COC(=S)NCc1cn(-c2cc(F)c(-n3ccc(C#N)c3)c(F)c2)nn1 [Example 8, {1-[4-(3-Cyano-pyrrol-1-yl)-3,5-difluoro-phenyl]-1H-[1,2,3]triazol-4-ylmethyl}-thiocarbamic acid O-methyl ester]		32 (≈ 85.5 µM)	32 (≈ 85.5 µM)	0.5 (≈ 1.34 µM)	0.5 (≈ 1.34 µM)	0.5 (≈ 1.34 µM)	1 (≈ 2.67 µM)	0.5 (≈ 1.34 µM)	0.5 (≈ 1.34 µM)
CC(=O)NCc1cn(-c2ccc(-n3cncn3)c(F)c2)nn1 [Example 25, N-[1-(3-Fluoro-4-[1,2,4]triazol-1-yl-phenyl)-1H-[1,2,3]triazol-4-ylmethyl]-acetamide]	223								
COC(=S)NCc1cn(-c2ccc(-n3cncn3)c(F)c2)nn1 [Example 20, [1-(3-Fluoro-4-[1,2,4]triazol-1-yl-phenyl)-1H-[1,2,3]triazol-4-yl-methyl]-thiocarbamic acid O-methyl ester]	179	32 (≈ 96 µM)	16 (≈ 48 µM)	32 (≈ 96 µM)	32 (≈ 96 µM)	16 (≈ 48 µM)	16 (≈ 48 µM)	32 (≈ 96 µM)	8 (≈ 24 µM)
COC(=S)NCc1cn(-c2ccc(-n3cnc(CO)c3)c(F)c2)nn1 [Example 27, {1-[3-Fluoro-4-(4-hydroxymethyl-imidazol-1-yl)-phenyl]-1H-[1,2,3]triazol-4-ylmethyl}-thiocarbamic acid O-methyl ester]	179	32 (≈ 88.3 µM)	16 (≈ 44.2 µM)	1 (≈ 2.76 µM)	2 (≈ 5.52 µM)	1 (≈ 2.76 µM)	1 (≈ 2.76 µM)	2 (≈ 5.52 µM)	1 (≈ 2.76 µM)
COC(=S)NCc1cn(-c2cc(F)c(-n3ccnc3)c(F)c2)nn1 [Example 9, [1-(3,5-Difluoro-4-imidazol-1-yl-phenyl)-1H-[1,2,3]triazol-4-ylmethyl]-thiocarbamic acid O-methyl ester]	180	32 (≈ 91.3 µM)	4 (≈ 11.4 µM)	1 (≈ 2.85 µM)	2 (≈ 5.71 µM)	1 (≈ 2.85 µM)	1 (≈ 2.85 µM)	2 (≈ 5.71 µM)	1 (≈ 2.85 µM)

Now from value to compound, other results behind:

melting point [°C]	Compound	MIC (Salmonella TA97) [µg/mL]	MIC (Mycobacterium MTCC006) [µg/mL]	MIC [1] [µg/mL]	MIC [2] [µg/mL]	MIC [3] [µg/mL]	MIC [4] [µg/mL]	MIC [5] [µg/mL]	MIC [6] [µg/mL]
165 to 167	COC(=S)NCc1cn(-c2ccc(-n3ccnc3)c(F)c2)nn1 [Example 10, [1-(3-Fluoro-4-imidazol-1-yl-phenyl)-1H-[1,2,3]triazol-4-ylmethyl]-thiocarbamic acid O-methyl ester]								
210 to 215	CC(=O)NCc1cn(-c2ccc(-n3cccc3)c(F)c2)nn1 [Example 22, N-[1-(3-Fluoro-4-pyrrol-1-yl-phenyl)-1H-[1,2,3]triazol-4-ylmethyl]-acetamide]								
150	COC(=S)NCc1cn(-c2ccc(-n3cccc3)cc2)nn1 [Example 1, [1-(4-Pyrrol-1-yl-phenyl)-1H-[1,2,3]triazol-4-ylmethyl]-thiocarbamic acid O-methyl ester]								
160 to 162	COC(=S)NCc1cn(-c2ccc(-n3ccc(C=O)c3)cc2)nn1 [Example 2, {1-[4-(3-Formyl-pyrrol-1-yl)-phenyl]-1H-[1,2,3]triazol-4-ylmethyl}-thiocarbamic acid O methyl ester]								
185	CC(=S)NCc1cn(-c2ccc(-n3ccnc3)c(F)c2)nn1 [Example 24, N-[1-(3-Fluoro-4-imidazol-1-yl-phenyl)-1H-[1,2,3]triazol-4-ylmethyl]-thioacetamide]								
